Consider 3 compounds from US7018631B1, “Compositions and methods for sensitizing and inhibiting growth of human tumor cells” (St. Jude Children's Research Hospital, priority 1998, dated 2006).

SMILES strings stand for the structures. Entries after “also recorded” stand apart in the source; their conditions may differ. Like-named read-outs stand apart in the source and are kept apart here.

One series deals with T1, topoisomerase I (Homo sapiens, UniProt P11387).
T1 sequence (P11387 1-765): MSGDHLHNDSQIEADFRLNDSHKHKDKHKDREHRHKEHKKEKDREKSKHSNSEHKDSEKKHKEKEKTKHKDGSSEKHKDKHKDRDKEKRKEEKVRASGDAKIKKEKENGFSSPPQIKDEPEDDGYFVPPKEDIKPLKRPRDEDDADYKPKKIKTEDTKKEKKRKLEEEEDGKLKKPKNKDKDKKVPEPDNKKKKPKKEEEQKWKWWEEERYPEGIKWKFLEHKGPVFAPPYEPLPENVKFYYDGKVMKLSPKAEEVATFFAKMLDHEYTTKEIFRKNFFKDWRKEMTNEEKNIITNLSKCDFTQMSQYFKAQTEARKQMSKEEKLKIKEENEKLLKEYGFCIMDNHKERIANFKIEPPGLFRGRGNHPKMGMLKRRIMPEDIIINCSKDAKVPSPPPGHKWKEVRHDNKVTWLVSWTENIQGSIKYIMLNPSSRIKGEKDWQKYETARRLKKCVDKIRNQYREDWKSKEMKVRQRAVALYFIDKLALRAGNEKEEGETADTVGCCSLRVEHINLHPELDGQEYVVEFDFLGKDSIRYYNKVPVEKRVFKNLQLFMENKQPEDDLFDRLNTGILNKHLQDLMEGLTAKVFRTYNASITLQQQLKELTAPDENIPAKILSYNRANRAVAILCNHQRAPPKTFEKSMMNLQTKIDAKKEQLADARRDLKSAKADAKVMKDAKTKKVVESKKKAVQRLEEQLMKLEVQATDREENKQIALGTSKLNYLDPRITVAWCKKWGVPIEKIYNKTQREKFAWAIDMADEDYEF
The note with it: cited from earlier work.

In the next series the test system is Rh18 RMS xenografts. As to conditions: cited from earlier work.
Series [1] relates to Rh30 rhabdosarcoma xenografts. The series is described as follows: Rh30 and Rh30pIRESrabbit xenografts in SCID mice treated with CPT-11. The series is classed as in vivo. As to conditions: for tumor response: 2.5 mg CPT-11/kg/day, three cycles. The method, then: The tumor growth rate is depicted on the Y-axis of each graph in terms of tumor volume and is plotted as a function of time in weeks (X-axis).
In this preclinical model, expression of the transfected cDNA for rabbit CE was maintained for at least 12 weeks.
Experiments were performed in this model to compare the responses of mice bearing human Rh30 and Rh30pIRESrabbit xenografts. Rh30 rhabdosarcoma xenografts were transfected with pIRESneo plasmid containing the cDNA for rabbit liver CE and selected with G418. Expression of CE was confirmed by biochemical assay using the CE substrate o-NPA and maintained for at least 12 weeks. Two groups of SCID mice were then injected with the transfected Rh30pIRESrabbit cells subcutaneously into the flanks. A third group of control mice was injected in identical fashion with Rh30 cells not transfected with the plasmid.

In series [2] the test system is CEs purified from human tissues. The note with it: human CE; cited from earlier work.
Series [3] concerns U373 glioblastoma xenografts. As to the kind of experiment: U373 glioblastoma xenografts in SCID mice treated with CPT-11. The series is classed as in vivo. The note with it: 7.5 mg/kg/day, three cycles. From the text:
The tumor growth rate is depicted on the Y-axis in terms of tumor volume and is plotted as a function of time in weeks (X-axis). Open circles depict the tumor volume of untreated U373 xenografts expressing rabbit CE. Filled triangles depict the response of control xenografts (no rabbit CE) treated with CPT-11. Filled squares depict the response of cells expressing rabbit CE and treated with CPT-11. […] Each point represents the mean of 14 tumors in 7 individual mice.
Similar studies were performed employing U373 glioblastoma cells transfected with the pIRESneo plasmid or with pIRESneo containing the cDNA for rabbit liver CE and selected with G418. Expression of CE in the tumor cells was confirmed by biochemical assay using the substrate o-NPA. Cells were injected subcutaneously into the flanks of the SCID mice.

For the next series, the system named is human NB-1691 xenografts. As to the kind of experiment: NB-1691 xenograft model for MRD. The series is classed as in vivo, mice. As to conditions: 10 mg/kg CPT-11 daily for 5 days on two consecutive weeks. From the text: However, within 4–6 weeks, tumors are palpable in the exact position where the original xenograft was implanted. Since these tumors arise from cells that survived the initial cycle of chemotherapy, this model therefore mimics results seen in patients following surgical resection of the primary tumor and subsequent regrowth at the same site.

The conditions of series [4]: patients; cited from earlier work.
Series [5] has as its system Rh30 rhabdomyosarcoma cells. The series is described as follows: Growth inhibition by CPT-11 of Rh30 cells stably transfected with pIRES or rabbit CE cDNA. The series is classed as cell-based. As to conditions: Homo sapiens, Rh30, 2 h, 2 h exposure. The method, then: The in vitro activity of rabbit liver CE was examined in tumor cell lines. […] Optimized conditions for electroporation were achieved using 180 V and 960 uF. […] Cells were grown for a minimum of 10 days before use in growth inhibition experiments. […] Drug was added to tissue culture medium of each of the stably transfected cell lines for two hours, after which time the medium was replaced with drug-free medium. Cells were then allowed to grow for 3 cell doublings as before.

Series [6] has as its target T2, rabbit liver CE (Oryctolagus cuniculus, UniProt P12337).
T2 sequence (P12337 19-565): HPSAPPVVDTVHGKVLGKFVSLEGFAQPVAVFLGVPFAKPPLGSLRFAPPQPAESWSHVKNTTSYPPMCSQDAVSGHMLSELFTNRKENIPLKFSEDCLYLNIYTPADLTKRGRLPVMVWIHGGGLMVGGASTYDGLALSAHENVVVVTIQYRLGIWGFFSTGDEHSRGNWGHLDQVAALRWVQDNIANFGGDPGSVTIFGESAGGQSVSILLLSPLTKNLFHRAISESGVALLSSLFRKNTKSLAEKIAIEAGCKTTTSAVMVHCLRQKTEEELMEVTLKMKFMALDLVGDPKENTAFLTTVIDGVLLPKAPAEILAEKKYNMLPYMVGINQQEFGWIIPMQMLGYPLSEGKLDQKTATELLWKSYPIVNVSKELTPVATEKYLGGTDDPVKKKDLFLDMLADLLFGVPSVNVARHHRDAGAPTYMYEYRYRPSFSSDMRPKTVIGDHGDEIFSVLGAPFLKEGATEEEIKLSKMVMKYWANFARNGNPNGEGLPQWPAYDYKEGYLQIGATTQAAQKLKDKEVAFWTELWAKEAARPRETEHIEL
The series is described as follows: Metabolism of CPT-11 by commercially available rabbit liver CE, rapid fluorometric assay. The series is classed as biochemical. The note with it: partially purified commercial rabbit liver CE. From the text:
(§1) The commercially available pig CE contained several proteins. […] Therefore, the rabbit proteins were chosen for further study.

A further series concerns pig liver CE. The series is described as follows: Metabolism of CPT-11 by commercially available pig liver CE, rapid fluorometric assay. The note with it: partially purified commercial pig liver CE. The series is classed as biochemical.
Text: as §1

A further series concerns Rh30 cells. The series is described as follows: Growth inhibition of Rh30 cells by CPT-11 pre-incubated with rabbit liver CE. Type of series: cell-based, human. As to conditions: 1 to 5 units of CE inactivated by heating; 1 h exposure. From the text: Another aspect of the present invention relates to the ability of compositions of the present invention comprising a polynucleotide encoding a carboxylesterase and a disease-specific responsive promoter of selected tumor cells to sensitize the tumor cells to a chemotherapeutic prodrug. The ability of the combination of a rabbit CE of the present invention and CPT-11 to sensitize human tumor cells to CPT-11 was examined. Experiments were first performed to confirm that the metabolite produced by the activity of a CE of the present invention is biologically active in vitro. Rh30 cells were then exposed to the products of each reaction for one hour and the percentage of growth inhibition was determined.
Each reaction mixture was then filter-sterilized and Rh30 cells were exposed to drug for one hour, at which time the medium was replaced with drug-free medium containing serum. […] Cells were allowed to grow for 3 cell doubling times and cell numbers were determined.

The target of series [7] is T2, rabbit liver CE. The series is described as follows: In vitro conversion of APC to SN-38 by rabbit liver CE. Type of series: biochemical. As to conditions: FIG. 6. From the text:
FIG. 6 is a linegraph showing the conversion of APC, depicted on the X-axis at nanomolar concentrations, to SN-38, depicted on the Y-axis at nanomolar concentrations, in vitro by the activity of rabbit liver CE given at doses of 0 (filled cross), 10 (filled hexagon), 25 (filled triangle), 50 (filled circle) or 100 (filled square) units. Data presented represent the mean response at each dose level.
(§2) No known human enzyme activates APC. […] Thus, the combination of APC and sensitization of selected tumor cells with rabbit liver CE as described above can be used to produce a tumor-specific cell death while greatly minimizing the toxic side effects associated with administration of chemotherapy.

In a further series the test system is U-373 glioma cells. The series is described as follows: Sensitization of U-373 glioma cells expressing CE to APC. The series is classed as cell-based, human. As to conditions: 2 h exposure. The method, then: FIG. 7 is a linegraph showing a comparison of the sensitization, depicted as % survival on the Y-axis, of U-373 glioma cells exposed to APC, depicted as log[APC] at concentrations from 10^−8 to 10^−5 M on the X-axis, from in situ expression of rabbit liver CE (filled squares) and human alveolar macrophage CE (filled circles). Cells were exposed for 2 hours to APC.
as §2

Where [8] appears, read: tumors not expressing CE (Rh30).

Consider `CCc1c2c(nc3ccc(O)cc13)-c1cc3c(c(=O)n1C2)COC(=O)[C@]3(O)CC` [SN-38, 7-ethyl-10-hydroxy-camptothecin], for which the “inhibition of topoisomerase I” value on topoisomerase I is “potent inhibitor”.
For `CCc1c2c(nc3ccc(OC(=O)N4CCC(N5CCCCC5)CC4)cc13)-c1cc3c(c(=O)n1C2)COC(=O)[C@]3(O)CC` [CPT-11, 7-ethyl-10-[4-(1-piperidino)-1-piperidino]carbonyloxycamptothecin], the tumor response entry with Rh18 RMS xenografts (10 mg/kg/day, same schedule) was “only partial tumor regression”; with Rh18 RMS xenografts (20 mg of CPT-11/kg/day daily for 5 days for two weeks), “complete regressions”; in [1] (tumors expressing rabbit CE (Rh30pIRESrabbit), 5 days/week for 2 weeks, 12 weeks), “complete tumor regression; also recorded: regressed completely and did not regrow”; in series [1] (setting [8]), “initial regression but regrowth; also recorded: regressed only transiently”; in [3] (xenografts from cells transfected with control plasmid (no rabbit CE)), “stable disease but no significant regression; also recorded: stable disease with no significant regression”; in series [3] (xenografts from cells transfected with plasmid encoding rabbit CE), “tumor regression was seen only in treated cells expressing rabbit CE; also recorded: regressed completely”. In the series with human NB-1691 xenografts, the tumor response entry is listed as “complete regression”. In addition, the “time to regrowth after CPT-11 treatment stopped” value in series [1] (setting [8]) is given as “within one week”. For the same compound, the “prodrug converted to active drug SN-38” value in [2] is on record as “less than 5%”. In addition, the “time until tumors are palpable again at the original site” value with human NB-1691 xenografts is listed as 4–6 weeks. Also, the dose-limiting toxicities entry in series [4] is “myelosuppression and secretory diarrhea”. The IC50 (commonly the concentration needed to halve the response being measured) came out at 4.33 µM in [5] (read-out: IC50 of CPT-11, Rh30pIRES cells (no CE cDNA)) and 0.576 µM in [5] (read-out: IC50 of CPT-11, Rh30pIRESrabbit cells (rabbit CE cDNA)). In addition, the “metabolism of CPT-11” value at rabbit liver CE [6] and in the series with pig liver CE was “metabolized CPT-11 efficiently” each time. The “inhibition of cell growth” value in the series with Rh30 cells was “no inhibition of cell growth”.
On to `CCc1c2c(nc3ccc(OC(=O)N4CCC(NCCCCC(=O)O)CC4)cc13)-c1cc3c(c(=O)n1C2)COC(=O)[C@]3(O)CC` [APC], for which the “conversion of APC to SN-38” value at rabbit liver CE [7] is reported as “converted to SN-38 in a concentration-dependent manner”. Besides, the “sensitization to growth inhibitory effects of APC” value is recorded as “not” in the series on U-373 glioma cells (U-373 cells expressing human alveolar macrophage CE) and “sensitized” in the series on U-373 glioma cells (U-373 cells expressing rabbit liver CE).
